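Five compound concentrations were applied to cells in 96-well plates for 48 hours; endpoints were derived by simple linear interpolation of the resulting dose-response curve. Here, GI50 denotes the concentration required for 50% inhibition of growth.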 Calls of active or inactive are those of the source. Cut-off read from the data, not from the text of the source: active = GI50 up to about 1.1 µM and inactive = higher.
Legend:
Assay in all cases: DTP human tumour cell line panel, 48 h
[1] = tested on: 786-0
[2] = tested on: A498
[3] = tested on: A549
[4] = tested on: ACHN
[5] = tested on: CAKI-1
[6] = tested on: CCRF-CEM
[7] = tested on: COLO 205
[8] = tested on: DU-145
[9] = tested on: EKVX
[10] = tested on: HCT-116
[11] = tested on: HCT-15
[12] = tested on: HL-60
[13] = tested on: HOP-62
[14] = tested on: HOP-92
[15] = tested on: HT-29
[16] = tested on: Hs-578T
[17] = tested on: IGROV-1
[18] = tested on: K562
[19] = tested on: KM12
[20] = tested on: LOX IMVI
[21] = tested on: M14
[22] = tested on: MCF7
[23] = tested on: MDA-MB-231
[24] = tested on: MDA-MB-435
[25] = tested on: MDA-N
[26] = tested on: MOLT-4
[27] = tested on: Malme-3M
[28] = tested on: NCI-H226
[29] = tested on: NCI-H23
[30] = tested on: NCI-H460
[31] = tested on: NCI-H522
[32] = tested on: NCI/ADR-RES
[33] = tested on: OVCAR-3
[34] = tested on: OVCAR-4
[35] = tested on: OVCAR-5
[36] = tested on: OVCAR-8
[37] = tested on: PC-3
[38] = tested on: RPMI-8226
[39] = tested on: RXF 393
[40] = tested on: SF-268
[41] = tested on: SF-295
[42] = tested on: SF-539
[43] = tested on: SK-MEL-28
[44] = tested on: SK-MEL-2
[45] = tested on: SK-MEL-5
[46] = tested on: SK-OV-3
[47] = tested on: SN12C
[48] = tested on: SNB-19
[49] = tested on: SNB-75
[50] = tested on: SR
[51] = tested on: SW-620
[52] = tested on: TK-10
[53] = tested on: U-251
[54] = tested on: UACC-257
[55] = tested on: UACC-62
[56] = tested on: UO-31

Q: How did the GI50 [1] turn out when CC(C)n1c(=O)[nH]n(-c2ccccc2)c1=O was run?
A: > 100 µM (inactive)

Q: And the GI50 [2]?
A: > 100 µM (inactive)

Q: And the GI50 [3]?
A: > 100 µM (inactive)

Q: And the GI50 [4]?
A: > 100 µM (inactive)

Q: And the GI50 [5]?
A: > 100 µM (inactive)

Q: And the GI50 [6]?
A: > 100 µM (inactive)

Q: And the GI50 [7]?
A: > 100 µM (inactive)

Q: And the GI50 [8]?
A: > 100 µM (inactive)

Q: What about the GI50 [9] of the same compound?
A: > 100 µM (inactive)

Q: And the GI50 [10]?
A: > 100 µM (inactive)

Q: And the GI50 [11]?
A: > 100 µM

Q: What about the GI50 [12] of the same compound?
A: > 100 µM (inactive)

Q: And the GI50 [13]?
A: > 100 µM (inactive)

Q: And the GI50 [14]?
A: > 100 µM (inactive)

Q: And the GI50 [15]?
A: > 100 µM (inactive)

Q: And the GI50 [16]?
A: > 100 µM (inactive)

Q: And the GI50 [17]?
A: > 100 µM (inactive)

Q: And the GI50 [18]?
A: > 100 µM (inactive)

Q: What about the GI50 [19] of the same compound?
A: > 100 µM (inactive)

Q: And the GI50 [20]?
A: > 100 µM (inactive)

Q: And the GI50 [21]?
A: > 100 µM (inactive)

Q: What about the GI50 [22] of the same compound?
A: > 100 µM (inactive)

Q: And the GI50 [23]?
A: > 100 µM (inactive)

Q: What about the GI50 [24] of the same compound?
A: > 100 µM (inactive)

Q: What about the GI50 [25] of the same compound?
A: > 100 µM (inactive)

Q: What about the GI50 [26] of the same compound?
A: > 100 µM (inactive)

Q: And the GI50 [27]?
A: > 100 µM (inactive)

Q: And the GI50 [28]?
A: > 100 µM (inactive)

Q: What about the GI50 [29] of the same compound?
A: > 100 µM (inactive)

Q: What about the GI50 [30] of the same compound?
A: > 100 µM (inactive)

Q: What about the GI50 [31] of the same compound?
A: > 100 µM (inactive)

Q: And the GI50 [32]?
A: > 100 µM (inactive)

Q: And the GI50 [33]?
A: > 100 µM (inactive)

Q: What about the GI50 [34] of the same compound?
A: > 100 µM (inactive)

Q: And the GI50 [35]?
A: > 100 µM (inactive)

Q: And the GI50 [36]?
A: > 100 µM (inactive)

Q: And the GI50 [37]?
A: > 100 µM (inactive)

Q: And the GI50 [38]?
A: > 100 µM (inactive)

Q: What about the GI50 [39] of the same compound?
A: > 100 µM (inactive)

Q: And the GI50 [40]?
A: > 100 µM (inactive)

Q: What about the GI50 [41] of the same compound?
A: > 100 µM (inactive)

Q: And the GI50 [42]?
A: > 100 µM (inactive)

Q: And the GI50 [43]?
A: > 100 µM (inactive)

Q: What about the GI50 [44] of the same compound?
A: > 100 µM (inactive)

Q: What about the GI50 [45] of the same compound?
A: > 100 µM (inactive)

Q: And the GI50 [46]?
A: > 100 µM (inactive)

Q: What about the GI50 [47] of the same compound?
A: > 100 µM (inactive)

Q: And the GI50 [48]?
A: > 100 µM (inactive)

Q: What about the GI50 [49] of the same compound?
A: > 100 µM (inactive)

Q: And the GI50 [50]?
A: > 100 µM (inactive)

Q: What about the GI50 [51] of the same compound?
A: > 100 µM (inactive)

Q: What about the GI50 [52] of the same compound?
A: > 100 µM (inactive)

Q: What about the GI50 [53] of the same compound?
A: > 100 µM (inactive)

Q: And the GI50 [54]?
A: > 100 µM (inactive)

Q: And the GI50 [55]?
A: > 100 µM (inactive)

Q: And the GI50 [56]?
A: > 100 µM (inactive)

— ChEMBL document CHEMBL1201862, “PubChem BioAssay data set” (2004)
